Each structure is given as a SMILES string.

The test system of the first assay is Pulmonary fibroblasts derived from a human fetus (IMR90). Nature of the assay: Test for inhibition of pulmonary fibroblast proliferation (BrdU incorporation). It is filed as cell-based. To be noted: Homo sapiens, IMR-90, read-out: IC50 value (nM) of inhibition effect of pulmonary fibroblast proliferation. Here is the method: Measurement of inhibition effect of pulmonary fibroblast proliferation was performed by modifying the method of Huang et al. (American Journal of Respiratory Cell and Molecular Biology, 39, 482 (2008)). Pulmonary fibroblasts derived from a human fetus (IMR90, purchased from American Type Culture Collection) were cultured in DMEM medium containing 10% FBS and seeded at 1×10^4 cells/well of a 96-well plate. After culturing for approximately 8 hours in a carbon dioxide incubator, the medium was replaced with FBS-free DMEM medium and the culturing was performed for one night. On the following day, the medium was replaced with a new FBS-free DMEM medium, and then a test compound dissolved in dimethyl sulfoxide (final concentration: 0.1%) and FGF (final concentration: 10 ng/mL, manufactured by Wako Pure Chemical Industries, Ltd.) were added thereto and allowed to stand undisturbed in a carbon dioxide incubator. After 22 hours, a BrdU labeling solution (manufactured by Roche) was added and culturing was performed for another 2 hours. After the completion of the culturing, amount of BrdU incorporation was measured using Cell Proliferation ELISA BrdU (colorimetric) (manufactured by Roche). The concentration of the test compound required to inhibit BrdU incorporation to 50% (IC50 value) was calculated by non-linear regression of the test compound concentration and the amount of BrdU incorporation using EXSAS (Ver. 8.0.0, manufactured by Arm Systex).
(In general: Dividing cells build labelled thymidine or BrdU into new DNA.)
As for `O=C(O)CNc1cccc(CN(Cc2ccc(-c3ccccc3)cc2)S(=O)(=O)c2ccccn2)n1` [Comparative example 1], the IC50 was over 1 nM. Take `O=C(O)CNc1cccc(CN(Cc2ccc(-c3ccccc3)cc2)S(=O)(=O)c2cccnc2)n1` [Comparative example 2, {6-[(Biphenyl-4-ylmethyl)(pyridin-3-ylsulfonyl)aminomethyl]pyridin-2-ylamino}acetic acid]: the IC50 worked out at 0.97 nM. For `O=C(O)CNc1cccc(CN(Cc2ccc(-c3ccc(F)cc3)cc2)S(=O)(=O)c2cccnc2)n1` [Comparative example 3, {6-[(4′-Fluorobiphenyl-4-ylmethyl)(pyridin-3-ylsulfonyl)aminomethyl]-pyridin-2-ylamino}acetic acid], the IC50 is over 1 nM. Same read-out and setting: with `O=C(O)CNc1cccc(CN(Cc2ccc(-c3ccc(Cl)cc3)cc2)S(=O)(=O)c2cccnc2)n1` [Comparative example 4, {6-[(4′-Chlorobiphenyl-4-ylmethyl)(pyridin-3-ylsulfonyl)aminomethyl]-pyridin-2-ylamino}acetic acid] the figure was over 1 nM; with `CC#Cc1ccccc1-c1ccc(CN(Cc2cccc(NCC(=O)O)n2)S(=O)(=O)c2ccccn2)cc1` [Comparative example 16], 0.5 nM; with `CC#Cc1ccc(-c2ccc(CN(Cc3cccc(NCC(=O)O)n3)S(=O)(=O)c3ccccn3)cc2)cc1` [Comparative example 17], over 1 nM. The same measure, in the same setting: next, `CC#Cc1cccc(-c2ccc(CN(Cc3cccc(NCC(=O)O)n3)S(=O)(=O)c3cccnc3)cc2)c1` [Example 6, (6-{[3′-(1-Propynyl)biphenyl-4-ylmethyl](pyridin-3-ylsulfonyl)aminomethyl}-pyridin-2-ylamino)acetic acid]: 0.045 nM. As to `CCOc1cccc(-c2ccc(CN(Cc3cccc(NCC(=O)O)n3)S(=O)(=O)c3cccnc3)cc2)c1` [Example 9, {6-[(3′-Ethoxybiphenyl-4-ylmethyl)(pyridin-3-ylsulfonyl)aminomethyl]-pyridin-2-ylamino}acetic acid], the IC50 is 0.051 nM. On the same count and under the same terms, with `CC#Cc1cccc(-c2ccc(CN(Cc3cccc(NCC(=O)O)n3)S(=O)(=O)c3cccs3)cc2)c1` [Example 14, (6-{[3′-(1-Propynyl)biphenyl-4-ylmethyl](thiophen-2-ylsulfonyl)-aminomethyl}pyridin-2-ylamino)acetic acid] the figure was 0.011 nM; with `CC#Cc1cccc(-c2ccc(CN(Cc3cccc(NCC(=O)O)n3)S(=O)(=O)c3cccc(F)c3)cc2)c1` [Example 19, (6-{(3-Fluorobenzenesulfonyl)[3′-(1-propynyl)biphenyl-4-ylmethyl]-aminomethyl}pyridin-2-ylamino)acetic acid], 0.026 nM.

Staying with this assay, now noted: Homo sapiens, IMR-90; IMR90; FGF 10 ng/mL; BrdU incorporation; read-out: IC50 value (nM) of inhibition effect of pulmonary fibroblast proliferation.
Regarding `Cc1cnc(-c2ccc(CN(Cc3cccc(NCC(=O)O)n3)S(=O)(=O)c3ccccn3)cc2)s1` [Comparative example 5], the IC50 was over 1 nM. The same measure, in the same setting: with `Cc1cccc(-c2ccc(CN(Cc3cccc(NCC(=O)O)n3)S(=O)(=O)c3ccccn3)cc2)c1` [Comparative example 6] the figure was 0.58 nM; with `CCc1cccc(-c2ccc(CN(Cc3cccc(NCC(=O)O)n3)S(=O)(=O)c3ccccn3)cc2)c1` [Comparative example 7], 0.88 nM. Still for that read-out and setting: with `CCCc1cccc(-c2ccc(CN(Cc3cccc(NCC(=O)O)n3)S(=O)(=O)c3ccccn3)cc2)c1` [Comparative example 8] the figure was 0.34 nM; with `C=CCc1cccc(-c2ccc(CN(Cc3cccc(NCC(=O)O)n3)S(=O)(=O)c3ccccn3)cc2)c1` [Comparative example 10], 0.56 nM. For the compound `COc1cccc(-c2ccc(CN(Cc3cccc(NCC(=O)O)n3)S(=O)(=O)c3ccccn3)cc2)c1` [Comparative example 11], the IC50 worked out at 0.2 nM. Take `CCOc1ccccc1-c1ccc(CN(Cc2cccc(NCC(=O)O)n2)S(=O)(=O)c2ccccn2)cc1` [Comparative example 13]: the IC50 was over 1 nM. Same read-out and setting: next, `CCOc1ccc(-c2ccc(CN(Cc3cccc(NCC(=O)O)n3)S(=O)(=O)c3ccccn3)cc2)cc1` [Comparative example 14]: over 1 nM. With `CC=Cc1cccc(-c2ccc(CN(Cc3cccc(NCC(=O)O)n3)S(=O)(=O)c3ccccn3)cc2)c1` [Example 2], the IC50 was found to be 0.035 nM. Same read-out and setting: with `CCOc1cccc(-c2ccc(CN(Cc3cccc(NCC(=O)O)n3)S(=O)(=O)c3ccccn3)cc2)c1` [Example 7, {6-[(3′-Ethoxybiphenyl-4-ylmethyl)(pyridin-2-ylsulfonyl)aminomethyl]-pyridin-2-ylamino}acetic acid] the figure was 0.028 nM. On the same count and under the same terms, next, `CCOc1cccc(-c2ccc(CN(Cc3cccc(NCC(=O)O)n3)S(=O)(=O)c3cccs3)cc2)c1` [Example 11, {6-[(3′-Ethoxybiphenyl-4-ylmethyl)(thiophen-2-ylsulfonyl)aminomethyl]-pyridin-2-ylamino}acetic acid]: 0.049 nM. Turning to `CCOc1cccc(-c2ccc(CN(Cc3cccc(NCC(=O)O)n3)S(=O)(=O)c3ccccn3)cc2)n1` [Example 12, (6-{[4-(6-Ethoxypyridin-2-yl)benzyl](pyridin-2-ylsulfonyl)aminomethyl}-pyridin-2-ylamino)acetic acid], the IC50 was found to be 0.037 nM.

Values taken from US9676720B2, “Substituted biaryl compound” (UBE INDUSTRIES, LTD., priority 2013, dated 2017).
